In patent US5021236A, “Method of enhancing NMR imaging using chelated paramagnetic ions bound to biomolecules” (Schering Aktiengesellschaft, priority 1981, dated 1991):

Columns and labels:
[1] = aqueous solubility; type: physicochemical; conditions: in water
[2] = NMR detection of a defective blood-brain barrier in the region of a cranial abscess; type: in vivo; conditions: NMR diagnosis; complex in the form of salts with good aqueous solubility; preferably 0.1-0.5 mmole/kg
Description: In contrast to conventional X-ray diagnosis with radiopaque X-ray contrast media, in NMR diagnosis with paramagnetic contrast medium there is no linear dependence of the signal enhancement on the concentration used. […] For this reason, it was surprising that some pathological processes can be seen only after application of a strongly paramagnetic contrast medium, according to the invention, higher than the doses indicated in EP No. 71564 (which can be from 0.001 mmole/kg to 5 mmole/kg). […] For a dose greater than 0.1 mmole/kg, solutions of high concentrations up to 1 mole/l, preferably 0.25 to 0.75 mole/l, are necessary, since only in this way is the volume load reduced and handling of the injection solution assured.

Row | aqueous solubility [1] | SMILES | dose at which a defective blood-brain barrier can be detected [2]
1 | good aqueous solubility | O=C([O-])CCCCCCCCCCNC(=O)CN(CCN(CCN(CC(=O)[O-])CC(=O)NCCCCCCCCCCC(=O)[O-])CC(=O)[O-])CC(=O)[O-].[Gd+3].[Na+].[Na+] [Example 2, disodium salt of gadolinium(III) complex of 13,23-dioxo-15,18,21-tris(carboxymethyl)-12,15,18,21,24-pentaazapentatriacontanedioic acid] | –
2 | insoluble in water | O=C([O-])CN(CCN(CC(=O)[O-])CC(=O)NCCCCCCCCCCC(=O)O)CCN(CC(=O)[O-])CC(=O)NCCCCCCCCCCC(=O)O.[Gd+3] [Gadolinium(III) complex of 13,23-dioxo-15,18,21-tris(carboxymethyl)-12,15,18,21,24-pentaazapentatriacontanedioic acid] | –
3 | – | O=C([O-])CN(CCN(CC(=O)[O-])CC(=O)O)CCN(CC(=O)[O-])CC(=O)O.[Gd+3] [gadolinium diethylenetriaminepentaacetic acid] | 0.05 to 2.5 mmol/kg
4 | – | O=C(O)CN(CC(=O)O)C1CCCCC1N(CC(=O)O)CC(=O)O.[Mn] (stereo not shown) [manganese-1,2-cyclohexenediaminetetraacetic acid] | 0.05 to 2.5 mmol/kg
